We go through 1 compound from patent US20100130408A1, “USE OF MODIFIED CYCLOSPORINS” (priority 2006, published 2010).

Molecules are shown by their SMILES.

One data set in a line: Cell viability of HSCs. Format: cell-based. Conditions: male, Wistar, rat, primary hepatic stellate cells (HSCs), 2 μM NIM811, serum-free conditions. Here is the method:
(§1) A. In vitro Cell culture: HSCs are isolated from the liver of male Wistar rats by sequential in situ perfusion with collagenase and digestion with pronase, followed by centrifugation in a double-layered (17%/11.5%) metrizamide solution (Sigma. Chemical, St. Louis, Mo.), as described in Kato, et al, J. Hepatol (1999) 31:91-99. HSCs are cultured in Dulbecco's modified Eagle's medium (DMEM) with 10% fetal calf serum (FCS). Experiments are performed on cells between the third and fourth serial passages. To measure […] matrix metalloproteinase (MMP-1) and tissue inhibitor of matrix metalloproteinase (TIMP-1), TWNT-4 cells which is a human cell line derived from HSCs as produced according to Shibata, et al, Cell Transplant (2003) 12:499-507 is used for evaluating the effects of Fasudil on MMP-1 and TIMP-1. TWNT-4 cells are cultured in DMEM with 10% FCS as reported previously (Id). NIM811 (Novartis Pharma AG, Basel, Switzerland) is dissolved in DMEM and added to cultures. Cell viability of HSCs is more than 90% under serum-free conditions for 24 h in the presence of 2 μM NIM811.

The subject of the next data set is TGFβ Signaling Pathways. Description: Western blot analysis for phospho- and nonphospho-Smad2 and Smad3. Conditions: 0.5 μM. It is filed as cell-based, human. As for the experimental part: Western blot analysis for phospho- and nonphospho-Smad2 and Smad3: Western blot analysis is performed as described above for MAPK analysis and probed with a primary antibody for Smad2, phospho-Smad2 (Thr/Tyr), Smad3, or phospho-Smad3 (Thr/Tyr) (Cell Signaling Technology, Danvers, Mass.). For comparison, the ratios of phosphorylated Smad2 and Smad3 to nonphosphorylated Smad2 and Smad3, respectively, are calculated from densitometric data.

The subject of a further data set is HSCs. The data set can be described thus: Analysis of apoptosis (TUNEL). To be noted: 2 μM. It is filed as cell-based, rat. As for the experimental part:
as §1, with “Cell viability of HSCs is more than 90% under serum-free conditions for 24 h in the presence of 2 μM NIM811.” left out
Analysis of Apoptosis: HSCs are maintained in either the presence or absence of NIM811 in serum-free conditions for 24 h. […] Cells are then stained with Hoechst 33342, and analyzed by the TUNEL method using an In Situ Cell Death Detection Kit (Roche) according to the manufacturer's instructions. […] At least 100 cells from three independent experiments and from three different cell preparations are counted for each condition.

For the next data set, the system named is MAPKs Signaling Pathways. The data set can be described thus: Western blot analysis for phospho- and nonphospho-MAPKs. It is filed as cell-based, human. As for the experimental part: Western blot analysis for phospho- and nonphospho-MAPKs: Western blot analysis is performed as described in Uchimura, et al, Hepatology (2001) 33:91099. HSCs are starved for 24 h, then treated with or without NIM811 for 2 h. Whole cell lysates containing 1×10^7 TWNT-4 cells are prepared in 100 μl SDS-PAGE sample buffer. Protein lysates are subjected to 12% SDS-PAGE, transferred to a polyvinylidene difluoride membrane (Millipore, Bedford, Mass.), and probed with the primary antibody for ERK1/2 MAPK, phospho-ERK1/2 MAPK (Thr202/Tyr204), JNK, phospho-JNK (Thr183/Tyr185), p38 MAPK, or phospho-p38 MAPK (Thr180/Tyr182) (New England Biolabs, Beverly, Mass.). Antibody binding is detected using peroxidase linked anti-rabbit IgG (Amersham Pharmacia Biotech, Piscataway, N.J.) as the secondary antibody. The blots are developed using ECL-plus (Amersham Pharmacia Biotech, Piscataway, N.J.) to visualize the antibodies. The levels of ERK1/2 MAPK, phosphorylated-ERK1/2 MAPK, JNK, phosphorylated-JNK, p38 MAPK, and phosphorylated-p38 MAPK are quantitated by densitometry using an optical scanner system. For comparison, the ratios of phosphorylated ERK1/2, JNK, and p38 MAPK to nonphosphorylated ERK1/2, JNK, and p38 MAPK, respectively, are calculated from the densitometric data.

In turn, `C/C=C/C[C@@H](C)[C@@H](O)[C@H]1C(=O)N[C@@H](CC)C(=O)N(C)CC(=O)N(C)[C@@H]([C@@H](C)CC)C(=O)N[C@@H](C(C)C)C(=O)N(C)[C@@H](CC(C)C)C(=O)N[C@@H](C)C(=O)N[C@H](C)C(=O)N(C)[C@@H](CC(C)C)C(=O)N(C)[C@@H](CC(C)C)C(=O)N(C)[C@@H](C(C)C)C(=O)N1C` [NIM811] returned a viability at 24 h, 2 µM in “Cell viability of HSCs” above 90%. In the data set on TGFβ Signaling Pathways, the “suppression of phosphorylation of Smad2” value is around 70% and the “suppression of phosphorylation of Smad3” value is on record as around 60%. In the data set on HSCs, the apoptosis result is reported as “no apoptosis is observed”. Besides, the “phosphorylation of ERK1/2” value in the data set with MAPKs Signaling Pathways is reported as “does not suppress ERK1/2”. Also, in the data set on MAPKs Signaling Pathways (0.5 μM), the “enhancement of phosphorylation of JNK” value was around 3.6 fold and the “enhancement of phosphorylation of p38 MAPK” value is given as around 2.3 fold.
